Source: publication PMC8878140, “Inhibitory Effects of Nitrogenous Metabolites from a Marine-Derived Streptomyces bacillaris on Isocitrate Lyase of Candida albicans” (Marine Drugs, 2022)

Experiments:
isocitrate lyase (ICL) [1] = target: T1, isocitrate lyase (ICL) (Candida albicans, UniProt Q9P8Q7); assay: biochemical
T1 construct: gene ICL1; purified recombinant ICL

isocitrate lyase (ICL) [2] = target: T1, isocitrate lyase (ICL); assay: enzyme assay, absorbance at […] nm (phenylhydrazine); Lineweaver-Burk and Dixon plots; assay type: biochemical

T1 sequence (Q9P8Q7 whole entry): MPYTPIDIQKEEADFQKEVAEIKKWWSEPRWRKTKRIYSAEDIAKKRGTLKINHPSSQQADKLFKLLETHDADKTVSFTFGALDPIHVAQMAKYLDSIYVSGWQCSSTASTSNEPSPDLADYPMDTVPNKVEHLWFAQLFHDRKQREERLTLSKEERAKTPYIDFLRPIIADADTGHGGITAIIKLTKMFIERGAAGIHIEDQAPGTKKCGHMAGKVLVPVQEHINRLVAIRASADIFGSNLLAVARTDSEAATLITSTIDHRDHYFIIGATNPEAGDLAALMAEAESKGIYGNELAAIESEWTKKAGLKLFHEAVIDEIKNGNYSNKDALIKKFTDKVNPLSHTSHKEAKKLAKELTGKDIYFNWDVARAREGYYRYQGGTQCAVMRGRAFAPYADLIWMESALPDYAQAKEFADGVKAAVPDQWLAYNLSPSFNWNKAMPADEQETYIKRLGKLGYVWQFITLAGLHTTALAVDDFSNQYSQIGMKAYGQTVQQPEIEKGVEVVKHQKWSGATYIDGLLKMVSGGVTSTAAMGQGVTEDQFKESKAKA

SMILES: O=C(O)CC[N+](=O)[O-] [3-nitropropionate, reference compound]
- IC50 (isocitrate lyase (ICL) [1]): 21.5 µM

SMILES: CS[C@]12CC[C@H](O)[C@H]1C(=O)NC2=O [compound 1, bacillimide]
- IC50 (isocitrate lyase (ICL) [2]): 44.2 µM

SMILES: C[S+]([O-])CCNC(=O)c1ccc[nH]1 (stereo not drawn) [compound 2, N-(2-(methylsulfinyl)ethyl)-1H-pyrrole-2-carboxamide]
- IC50 (isocitrate lyase (ICL) [1]; read-out: ICL IC50): 190 µM
